The nature of one data set: in vitro. Particulars: male, rat, microsomes, pH 7.38.
For data set [1], the system named is hippocampal neurons. Description: Whole-cell recordings of mEPSCs in dissociated hippocampal neurons. Type of data set: cell-based, rat. Particulars: 10^−12 M, 5 days.
The subject of data set [2] is hippocampal neurons. Description: H2O2 oxidative stress in dissociated hippocampal neurons. The settings on record: 100 μM H2O2 24 hrs +/− HGF 5 ng/ml and/or Dihexa. Type of data set: cell-based. Here is the method: FIG. 47. […] Dissociated hippocampal neurons were treated with 100 μM H2O2 for 24 hrs+/−HGF at sub-threshold concentrations 5 ng/ml and or Dihexa at 2 different concentrations 10^−8M and […]. (*p<0.05,** p<0.01; Mean+/−SEM).

The next data set concerns CA1 hippocampal neurons. Description: Spinogenesis in organotypic hippocampal slice cultures. It is filed as cell-based, rat. Particulars: 10^−12 M Nle1-AngIV or Dihexa, 10 ng/ml HGF; 2 days. The procedure: Hippocampi from P4 Sprague Dawley rats were cultured as previously described (Wayman, hnpey et al. 2006). Briefly, 400 μm slices were cultured on (Milipore, Billerica, Mass.) for 3 days after which they were biolistically transfected with tomato fluorescent protein (TFP) using a Helios Gen Gun (BioRad, Hercules, Calif.), according to the manufacturer's protocol, to visualize dendritic arbors. Following a 24 hour recovery period slices were stimulated with vehicle (H2O), 1 pM Nle1-AngIV or Dihexa for 2 days. Slices were fixed and mounted. Hippocampal CA1 neuronal processes were imaged and measured as described above.
Hippocampi from P4 Sprague Dawley rats were cultured as previously described (Wayman, Impey et al. 2006). Briefly, 400 μm slices were cultured on (Milipore, Billerica, Mass.) for 3 days after which they were biolistically transfected with tomato fluorescent protein (TFP) using a Helios Gene Gun (BioRad, Hercules, Calif.), according to the manufacturer's protocol, to visualize dendritic arbors. Following a 24 hour recovery period slices were stimulated with 1 pM Nle1-AngIV or Dihexa for 2 days. […] Hippocampal CA1 neuronal processes were imaged and measured as described above.
Hippocampi from P4 Sprague Dawley rats were cultured as previously described (Wayman, Impey et al. 2006). […] Hippocampal CA1 neuronal processes were imaged and measured as described above.

Data set [3] can be described thus: Dihexa pharmacokinetics in rats (IV, intraperitoneal). Type of data set: in vivo, rat. Here is the method:
Ethics approval for animal experimentation was obtained from Washington State University.
Dihexa solutions were prepared by suspending dry stock dihexa in DMSO at 1 mg/mL and subsequent serial dilutions in 50% DMSO or HPLC grade water for the final concentrations specified. Stock dihexa is kept in powder form and stored at −20° C. Quality control (QC) samples were prepared by spiking fresh rat plasma with an appropriate dilution of dihexa for the final concentration of dihexa specified, keeping a 10:1 ratio of plasma to dihexa solution (final DMSO concentration 5%). The compounds, Nle^1-Ang-IV and Nle-YI-(6) aminohexanoic amide, molecules very similar in structure and properties to dihexa, were used as internal standards and were prepared the same way.
The proteins present in the plasma samples were precipitated using three volumes of ice-cold acetonitrile. Internal standards were then added and the samples were vortexed for approximately 10 seconds. Samples were then centrifuged at 5000 RPM for 5 minutes. The supernatants were transferred to new tubes and stored until use at −20° C. Samples were then concentrated to a volume of approximately 100 ul. 200 ul HPLC grade water was added to each sample and the samples were transferred to autosampler vials.
Male Sprague Dawley rats were catheterized as described in the Animals and Surgical Procedures section. […] The typical injection volume was 200 μL yielding an initial estimated DMSO concentration in blood of 0.46%. After dosing, blood samples were collected as described in Table 7.
The blood samples were collected into polypropylene microcentrifuge tubes and cooled on ice for not more than 1 hour. The samples were centrifuged at 5000 RPM for 7 minutes and 80 μL plasma were transferred into previously prepared tubes containing 240 μL ice-cold acetonitrile. The samples were vortexed vigorously for 30 seconds and held on ice. 100 μg/mL Nle-YI-(6) aminohexanoic amide in 10 μL was used as an internal standard and added to each sample on ice.
10 μL of each serial dilution was then added to 90 μL of blank plasma for final concentrations of 0.01, 0.02, 0.05, 0.1, 0.2, 1, 10, 20, 50 and 100 μg/mL. 80 μL of each plasma sample was transferred to previously prepared tubes containing 240 μL ice-cold acetonitrile and vortexed vigorously. 10 μL containing 100 μg/mL Nle-YI-(6) aminohexanoic amide as an internal standard, was added to each sample on ice. The standard curve plasma samples were then stored at −20° C. and further processed alongside the pharmacokinetic study samples according to the method described above.
The analytical column that was used was n C18 (100 mm×2.1 mm). The mobile phase consisted of HPLC grade acetonitrile and water with 0.1% acetic acid. […] For MS analysis, a positive ion mode (SIM) was used to monitor the m/z of dihexa at […] (dihexa with the addition of a sodium adduct) and the m/z of Nle-YI-(6) aminohexanoic amide and Nle^1-AngIV (internal standards) at 513 and 541, respectively (both with sodium adducts). Samples were introduced using the autosampler and the injection volume was 50 ul. For the microsomal study, the m/z of verapamil was 455, the m/z of piroxicam was 332, and the m/z of 7-ethoxycoumarin was 191.
Pharmacokinetic analysis was performed using data from individual rats from which the mean and standard error of the mean (SEM) were calculated for each group.

Setting [4] is: male, Sprague-Dawley, rat, plasma, IV 10 mg/kg, rats, Mean ± SEM.

These results are taken from US9051351B2, “Hepatocyte growth factor mimics as therapeutic agents” (Washington State University, priority 2011, dated 2015).

“Also recorded” adds a separate entry of the source. Read-outs that look alike come from different tables or passages of the source. Where a SMILES comes first, the peptide text is derived from it. [ ]: non-standard residue; d: D form. The star is where a group is joined. Hexanoyl = CCCCCC(=O)*; Ahx = NCCCCCC(=O)O

One may read the microsomal CLint as the rate of metabolic loss divided by the concentration. Read a low microsomal CLint as greater metabolic stability. One may read the AUC(0-inf) as total exposure, with the tail of the curve extrapolated. In the data set “in vitro”, `CCCCCC(=O)N[C@@H](Cc1ccc(O)cc1)C(=O)N[C@H](C(=O)NCCCCCC(N)=O)[C@@H](C)CC` [Dihexa, N-hexanoic-Tyr-Ile-(6)-aminohexanoic amide] (Hexanoyl-Tyr-Ile-[Ahx]-NH2) displayed a half-life at 5 µM of 0.354 days and a microsomal CLint at 5 µM of 2.72 µL/min/mg. In the data set on hippocampal neurons [1], the “frequency of AMPA-mediated mEPSCs” value is reported as 4.82±0.34 Hz and the “increase in mEPSC frequency over control” value is 1.6 fold. The “protection of neurons from oxidative stress” value in the data set on hippocampal neurons [2] is “act synergistically to protect neurons; also recorded: protects neurons from oxidative stress”. Moreover, the “spines per 50 μm dendrite length in CA1 hippocampal neurons” value with CA1 hippocampal neurons was 11 spines per 50 μm dendrite length. In data set [3] (IV 10 mg/kg, rats, Mean ± SEM), the Cp0 is 87.3 ± 31.9 µg/mL and the KE was 0.00007 ± 0.00004 min⁻¹. Also, in data set [3] (male, Sprague-Dawley, rat, plasma, ip, 20 mg/kg, delivered intraperitoneally, Mean+/−SEM, N=4, read-out: half-life (t1/2) (converted)), the half-life was 8.83 days. In data set [3] (male, Sprague-Dawley, rat, plasma, iv, 10 mg/kg, IV 10 mg/kg, rats, Mean ± SEM, read-out: t½), the half-life turned out to be 12.7 ± 5.41 days. Also, the half-life in data set [3] (male, Sprague-Dawley, rat, plasma, iv, 10 mg/kg, IV administration 10 mg/kg, rats, read-out: half-life (t1/2) (converted)) was 12.7 days. Further, in data set [3] (setting [4]), the Vd is 54.4 ± 14.8 L/kg and the clearance is 2.6 ± 0.7 mL/min/kg. Moreover, in data set [3] (male, Sprague-Dawley, rat, plasma, IV 10 mg/kg, rats, Mean ± SEM, N = 3), the AUC(0-inf) is 74500 ng·h/mL.
